The text below walks through data of ChEMBL document CHEMBL1671688, “Raltegravir penetration in seminal plasma of healthy volunteers” (Antimicrob Agents Chemother, 2010).

Common to all, as to format: ADME, organism-based
Series [1] is described as follows: Drug level in semen of healthy human at […] administered twice daily measured 5 hrs post dosing by HPLC. To be noted: male, read-out: Drug uptake.
Series [2] deals with Blood. Kind of series: Drug level in blood of healthy human at […] administered twice daily measured after 2 to 4 hrs by HPLC. To be noted: in vivo.
Series [3] in a line: Ratio of drug level in semen to blood in healthy human at […] administered twice daily measured after 2 to 4 hrs by HPLC. To be noted: male.
Series [4] is described as follows: Ratio of drug level in semen to blood in healthy human at […] administered twice daily measured 5 hrs post dosing by HPLC. To be noted: male.
A short description of series [5]: Ratio of drug level in semen to blood in healthy human at […] administered twice daily measured on day 5 by HPLC. To be noted: male.
Series [6] in a line: Drug level in blood of healthy human at […] administered twice daily measured on day 5 by HPLC. Conditions: read-out: Drug uptake.
Series [7] can be described thus: Drug level in semen of healthy human at […] administered twice daily measured after 2 to 4 hrs by HPLC. To be noted: in vivo.
The nature of series [8]: Drug level in semen of healthy human at […] administered twice daily measured on day 5 by HPLC. To be noted: male, read-out: Drug uptake.

The term Kp denotes the ratio of the level in a tissue or fluid to that in plasma or blood. Take `Cc1nnc(C(=O)NC(C)(C)c2nc(C(=O)NCc3ccc(F)cc3)c(O)c(=O)n2C)o1` [RALTEGRAVIR]: in series [1], the concentration at 5 h is 345 ng/mL. Also, the Drug uptake in series [2] amounted to 651 ng/mL; in series [7] it was 953 ng/mL. Also, the partition ratio (Kp) in series [3] is 1.62. Further, the concentration ratio (Kp) at 5 h in series [4] was determined as 1.42. Also, in series [5], the Kp at 5 day is 3.78. The concentration at 5 day in series [6] stood at 51 ng/mL; in series [8], 212 ng/mL.
